The values that follow come from ChEMBL document CHEMBL3861981 (J Med Chem, 2016).

SMILES strings stand for the structures.

Data set [1] can be described thus: Oral bioavailability in cannulated Sprague-Dawley rat plasma at 15 mg/kg administered via gavage measured up to 24 hrs post dose by LC/MS/MS analysis. In kind it is ADME, organism-based.
The nature of data set [2]: AUC in cannulated Sprague-Dawley rat plasma at 15 mg/kg administered via oral gavage measured up to 24 hrs post dose by LC/MS/MS analysis. Format: ADME, organism-based. Also noted: dose 15 mg/kg, time < 24 hr, route oral.
Data set [3] can be described thus: Drug uptake in cannulated Sprague-Dawley rat liver at 15 mg/kg administered via oral gavage measured at 24 hrs post dose by LC/MS/MS analysis. Format: ADME, organism-based. Conditions: read-out: Drug uptake.
The nature of data set [4]: Clearance in Beagle dog plasma at 1 mg/kg, iv administered as 5 mins infusion measured up to 24 hrs post dose by LC/MS/MS analysis. Format: ADME, organism-based, Canis lupus familiaris.
Data set [5] in a line: Cytotoxicity against human HEK293T cells assessed as decrease in cell viability.
Data set [6] is described as follows: Cytotoxicity against human MRC5 cells assessed as decrease in cell viability.
The subject of a further data set is Salmonella typhimurium. Nature of the data set: Genotoxicity in Salmonella typhimurium in absence of S9 fraction by Ames test. Format: toxicity, organism-based. Conditions: salmonella enterica subsp. enterica serovar typhimurium.
Data set [7] in a line: Cardiotoxicity in anesthetized rabbit assessed as effect on PR interval at 30 mg/kg, iv administered as 10 mins infusion measured up to 60 mins post dose by electrophysiology assay. In kind it is toxicity, organism-based, Oryctolagus cuniculus. The settings on record: in vivo.
Data set [8] is described as follows: Cardiotoxicity in anesthetized rabbit assessed as effect on QRS interval at 30 mg/kg, iv administered as 10 mins infusion measured up to 60 mins post dose by electrophysiology assay. Format: toxicity, organism-based, Oryctolagus cuniculus. The settings on record: in vivo.
Data set [9] is described as follows: Cardiotoxicity in dog assessed as effect on QRS interval at 30 to 100 mg/kg administered as single dose by electrophysiology assay. Conditions: in vivo. In kind it is toxicity, organism-based, Canis lupus familiaris.
Data set [10] in a line: Inhibition of recombinant full length HCV genotype 5a SA13 NS3/4A protease preincubated for 30 mins followed by substrate addition measured by FRET assay. Also noted: species or system Hepatitis C virus SA13.
The next data set concerns the target T1, Neutrophil elastase (Homo sapiens, UniProt P08246).
T1 sequence (P08246 whole entry): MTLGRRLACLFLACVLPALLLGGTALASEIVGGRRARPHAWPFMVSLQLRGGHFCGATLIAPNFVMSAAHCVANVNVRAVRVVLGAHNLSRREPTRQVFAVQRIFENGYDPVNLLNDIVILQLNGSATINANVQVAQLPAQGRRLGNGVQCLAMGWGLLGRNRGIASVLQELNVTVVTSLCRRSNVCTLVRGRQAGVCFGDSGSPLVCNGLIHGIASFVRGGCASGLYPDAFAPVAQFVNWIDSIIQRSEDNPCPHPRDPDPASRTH
Nature of the data set: Inhibition of human leukocyte elastase.

In data set [1], `COc1cnc(O[C@@H]2C[C@@H](C(=O)N[C@]3(C(=O)NS(=O)(=O)C4CC4)C[C@H]3C3CC3)N(C(=O)[C@@H](NC(=O)O[C@H](C)C(F)(F)F)C3CCCCC3)C2)c2cc(Cl)ccc12` came in with a bioavailability of 86.4%. The AUC at 24 h in [2] was determined as 21.1 µM·h. Besides, the concentration at 24 h in data set [3] was 51 µM. The clearance in data set [4] is 4.3 mL/min/kg. The CC50 in data set [5] and in data set [6] was 8 to 14 µM in each case. For the same molecule, the Activity result (with Salmonella typhimurium; in [7]; in [8]; in [9]) was “Non-Toxic” in each case. The IC50 in data set [10] came to 0.0041 µM; against Neutrophil elastase, 21 µM.
